Test system: 922993-354-T-J3-PDC complex spheroids, viability, % test/control
Assay: Anticancer human tumor 922993-354-T-J3-PDC patient-derived endometrial carcinoma cell line growth inhibition [CLK]
Conditions: for IC50: curve of first compound; for viability, T/C: stronger effect = lower value
Outline: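 Multi-cell-type spheroids combined patient-derived tumor cells with HUVEC endothelial cells and human mesenchymal stem cells. Paired agents were dosed in half-log steps down from about clinical Cmax, or from 10 microM where Cmax was unknown.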

[1] = second compound 0.0316 µM, first compound 0.00316 µM
[2] = second compound 0.0316 µM, first compound 0.01 µM
[3] = second compound 0.0316 µM, first compound 0.0316 µM
[4] = second compound 0.0316 µM, first compound 0.1 µM
[5] = second compound 0.1 µM, first compound 0.00316 µM
[6] = second compound 0.1 µM, first compound 0.01 µM
[7] = second compound 0.1 µM, first compound 0.0316 µM
[8] = second compound 0.1 µM, first compound 0.1 µM
[9] = second compound 0.316 µM, first compound 0.00316 µM
[10] = second compound 0.316 µM, first compound 0.01 µM
[11] = second compound 0.316 µM, first compound 0.0316 µM
[12] = second compound 0.316 µM, first compound 0.1 µM
[13] = second compound 1 µM, first compound 0.00316 µM
[14] = second compound 1 µM, first compound 0.01 µM
[15] = second compound 1 µM, first compound 0.0316 µM
[16] = second compound 1 µM, first compound 0.1 µM
[17] = second compound 3.16 µM, first compound 0.00316 µM
[18] = second compound 3.16 µM, first compound 0.01 µM
[19] = second compound 3.16 µM, first compound 0.0316 µM
[20] = second compound 3.16 µM, first compound 0.1 µM
[21] = second compound 10 µM, first compound 0.00316 µM
[22] = second compound 10 µM, first compound 0.01 µM
[23] = second compound 10 µM, first compound 0.0316 µM
[24] = second compound 10 µM, first compound 0.1 µM
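Note: spheroids exposed to the agents for 7 days before readout.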

Work on `C=CC(=O)Nc1cc(Nc2nccc(-c3cn(C)c4ccccc34)n2)c(OC)cc1N(C)CCN(C)C` + CN1CCN(c2cc(C(=O)Nc3cc4cc(-c5cnn(C)c5)ccc4cn3)ccn2)CC1 yielded an IC50 (second compound 0.0316 µM) greater than 300 nM, an IC50 (second compound 0.1 µM) greater than 300 nM and an IC50 (second compound 0.316 µM) of less than 0.949 nM. The IC50 (second compound 1 µM) was less than 0.949 nM, the IC50 (second compound 3.16 µM) was less than 0.949 nM and the IC50 (second compound 10 µM) was less than 0.949 nM. For the same compound, the viability, T/C (second compound 0.0316 µM, first compound 0.000949 µM) was 98.9%, the viability, T/C (second compound 0.0316 µM, first compound 0.003 µM) was 98.4% and the viability, T/C (second compound 0.0316 µM, first compound 0.00949 µM) was 101%. For the same compound, the viability, T/C (second compound 0.0316 µM, first compound 0.03 µM) was 108%, the viability, T/C (second compound 0.0316 µM, first compound 0.0949 µM) was 97.4% and the viability, T/C (second compound 0.0316 µM, first compound 0.3 µM) was 73.1%. It also gave a viability, T/C (second compound 0.1 µM, first compound 0.000949 µM) of 96.7%, a viability, T/C (second compound 0.1 µM, first compound 0.003 µM) of 97.7% and a viability, T/C (second compound 0.1 µM, first compound 0.00949 µM) of 83.7%. It also gave a viability, T/C (second compound 0.1 µM, first compound 0.03 µM) of 69%, a viability, T/C (second compound 0.1 µM, first compound 0.0949 µM) of 81% and a viability, T/C (second compound 0.1 µM, first compound 0.3 µM) of 63.3%. It also gave a viability, T/C (second compound 0.316 µM, first compound 0.000949 µM) of 41.8%, a viability, T/C (second compound 0.316 µM, first compound 0.003 µM) of 45.5% and a viability, T/C (second compound 0.316 µM, first compound 0.00949 µM) of 44.2%. It also gave a viability, T/C (second compound 0.316 µM, first compound 0.03 µM) of 22.8%, a viability, T/C (second compound 0.316 µM, first compound 0.0949 µM) of 31.7% and a viability, T/C (second compound 0.316 µM, first compound 0.3 µM) of 27.8%. It also gave a viability, T/C (second compound 1 µM, first compound 0.000949 µM) of 0.12%, a viability, T/C (second compound 1 µM, first compound 0.003 µM) of 0.13% and a viability, T/C (second compound 1 µM, first compound 0.00949 µM) of 1.12%. For the same compound, the viability, T/C (second compound 1 µM, first compound 0.03 µM) was 0.1%, the viability, T/C (second compound 1 µM, first compound 0.0949 µM) was 0.1% and the viability, T/C (second compound 1 µM, first compound 0.3 µM) was 1.55%. For the same compound, the viability, T/C (second compound 3.16 µM, first compound 0.000949 µM) was 0.11%, the viability, T/C (second compound 3.16 µM, first compound 0.003 µM) was 0.14% and the viability, T/C (second compound 3.16 µM, first compound 0.00949 µM) was 0.14%. It also gave a viability, T/C (second compound 3.16 µM, first compound 0.03 µM) of 0.7%, a viability, T/C (second compound 3.16 µM, first compound 0.0949 µM) of 0.13% and a viability, T/C (second compound 3.16 µM, first compound 0.3 µM) of 1.62%. For the same compound, the viability, T/C (second compound 10 µM, first compound 0.000949 µM) was 0.15%, the viability, T/C (second compound 10 µM, first compound 0.003 µM) was 0.17% and the viability, T/C (second compound 10 µM, first compound 0.00949 µM) was 1.16%. It also gave a viability, T/C (second compound 10 µM, first compound 0.03 µM) of 0.16%, a viability, T/C (second compound 10 µM, first compound 0.0949 µM) of 1.05% and a viability, T/C (second compound 10 µM, first compound 0.3 µM) of 0.62%.
Compound `CCN1CCN(Cc2ccc(Nc3ncc(F)c(-c4cc(F)c5nc(C)n(C(C)C)c5c4)n3)nc2)CC1` + CN1CCN(c2cc(C(=O)Nc3cc4cc(-c5cnn(C)c5)ccc4cn3)ccn2)CC1 has an IC50 (second compound 0.0316 µM) greater than 1000 nM, an IC50 (second compound 0.1 µM) greater than 1000 nM and an IC50 (second compound 0.316 µM) of less than 3.16 nM. For the same compound, the IC50 (second compound 1 µM) was less than 3.16 nM, the IC50 (second compound 3.16 µM) was less than 3.16 nM and the IC50 (second compound 10 µM) was less than 3.16 nM. The viability, T/C [1] was 106%, the viability, T/C [2] was 110% and the viability, T/C [3] was 87.4%. It also gave a viability, T/C [4] of 83.3%, a viability, T/C (second compound 0.0316 µM, first compound 0.316 µM) of 58.9% and a viability, T/C (second compound 0.0316 µM, first compound 1 µM) of 57.3%. The viability, T/C [5] was 88.1%, the viability, T/C [6] was 91.8% and the viability, T/C [7] was 75.8%. For the same compound, the viability, T/C [8] was 66.4%, the viability, T/C (second compound 0.1 µM, first compound 0.316 µM) was 58.8% and the viability, T/C (second compound 0.1 µM, first compound 1 µM) was 60.5%. The viability, T/C [9] was 46.5%, the viability, T/C [10] was 37% and the viability, T/C [11] was 34.4%. It also gave a viability, T/C [12] of 37%, a viability, T/C (second compound 0.316 µM, first compound 0.316 µM) of 36.4% and a viability, T/C (second compound 0.316 µM, first compound 1 µM) of 38.6%. It also gave a viability, T/C [13] of 0.13%, a viability, T/C [14] of 0.79% and a viability, T/C [15] of 0.77%. For the same compound, the viability, T/C [16] was 0.13%, the viability, T/C (second compound 1 µM, first compound 0.316 µM) was 1.01% and the viability, T/C (second compound 1 µM, first compound 1 µM) was 0.64%. For the same compound, the viability, T/C [17] was 0.1%, the viability, T/C [18] was 1.24% and the viability, T/C [19] was 0.11%. It also gave a viability, T/C [20] of 0.13%, a viability, T/C (second compound 3.16 µM, first compound 0.316 µM) of 0.16% and a viability, T/C (second compound 3.16 µM, first compound 1 µM) of 0.84%. The viability, T/C [21] was 0.13%, the viability, T/C [22] was 0.16% and the viability, T/C [23] was 1.7%. For the same compound, the viability, T/C [24] was 0.15%, the viability, T/C (second compound 10 µM, first compound 0.316 µM) was 2.3% and the viability, T/C (second compound 10 µM, first compound 1 µM) was 2.5%.
`Cn1ncnc1[C@H]1c2n[nH]c(=O)c3cc(F)cc(c23)N[C@@H]1c1ccc(F)cc1` + CNC(=O)c1ccc(Nc2nc(OC3CCCC3)c3c(-c4ccc5nc(C)oc5c4)c[nH]c3n2)c(OC)c1 gave an IC50 (second compound 0.0316 µM) greater than 100 nM, an IC50 (second compound 0.1 µM) greater than 100 nM and an IC50 (second compound 0.316 µM) greater than 100 nM. It also gave an IC50 (second compound 1 µM) of less than 0.316 nM, an IC50 (second compound 3.16 µM) of less than 0.316 nM and an IC50 (second compound 10 µM) of less than 0.316 nM. It also gave a viability, T/C (second compound 0.0316 µM, first compound 0.000316 µM) of 92%, a viability, T/C (second compound 0.0316 µM, first compound 0.001 µM) of 99.2% and a viability, T/C [1] of 88.9%. The viability, T/C [2] was 104%, the viability, T/C [3] was 97.6% and the viability, T/C [4] was 84.6%. It also gave a viability, T/C (second compound 0.1 µM, first compound 0.000316 µM) of 109%, a viability, T/C (second compound 0.1 µM, first compound 0.001 µM) of 114% and a viability, T/C [5] of 106%. The viability, T/C [6] was 104%, the viability, T/C [7] was 113% and the viability, T/C [8] was 94.4%. The viability, T/C (second compound 0.316 µM, first compound 0.000316 µM) was 77.3%, the viability, T/C (second compound 0.316 µM, first compound 0.001 µM) was 64.4% and the viability, T/C [9] was 56.6%. It also gave a viability, T/C [10] of 73.2%, a viability, T/C [11] of 76.1% and a viability, T/C [12] of 57.2%. The viability, T/C (second compound 1 µM, first compound 0.000316 µM) was 36.9%, the viability, T/C (second compound 1 µM, first compound 0.001 µM) was 34% and the viability, T/C [13] was 32.4%. The viability, T/C [14] was 33.9%, the viability, T/C [15] was 32.4% and the viability, T/C [16] was 27.1%. The viability, T/C (second compound 3.16 µM, first compound 0.000316 µM) was 28.9%, the viability, T/C (second compound 3.16 µM, first compound 0.001 µM) was 33.7% and the viability, T/C [17] was 32.1%. It also gave a viability, T/C [18] of 30.8%, a viability, T/C [19] of 28% and a viability, T/C [20] of 21%. The viability, T/C (second compound 10 µM, first compound 0.000316 µM) was 28.8%, the viability, T/C (second compound 10 µM, first compound 0.001 µM) was 34.2% and the viability, T/C [21] was 31.2%. The viability, T/C [22] was 28.8%, the viability, T/C [23] was 24.1% and the viability, T/C [24] was 20.8%.
